Test systems include SNB-19; OVCAR-4; EKVX; SK-MEL-2; NCI/ADR-RES; RPMI-8226; SF-539; A549; RXF 393; Hs-578T; MOLT-4; SK-OV-3; MDA-MB-435; TK-10; SR; HOP-92; CAKI-1; UACC-62; K562; HCT-116.
Experiment in all cases: NCI-60 cell line screen, 48 h

The text below walks through data of ChEMBL document CHEMBL1201862, “PubChem BioAssay data set” (2004).

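How tested: cells in 96-well plates exposed to compound for 48 hours at five concentrations. GI50 = concentration required for 50% inhibition of growth.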 Activity calls are given as the source filed them. No stated cut-off is given here; in the data, active = GI50 up to about 1.1 µM and inactive = higher.

`O=C1NNC(=O)c2ccccc2SSc2ccccc2C(=O)NNC(=O)c2ccccc2SSc2ccccc21`: the GI50 in the assay on SNB-19 was 25.9 µM (inactive); in the assay on OVCAR-4, 33.7 µM (inactive); in the assay with EKVX it was 18.1 µM (inactive); in the assay with SK-MEL-2 it was 26.8 µM (inactive); in the assay with NCI/ADR-RES it was 17.8 µM (inactive); in the assay on RPMI-8226, 34 µM (inactive). Besides, the GI50 is 17.3 µM (inactive) in the assay with SF-539; 19.5 µM (inactive) in the assay with A549; > 50 µM (inactive) in the assay with RXF 393; > 50 µM (inactive) with Hs-578T; 2.94 µM (inactive) in the assay with MOLT-4; 23.3 µM (inactive) in the assay on SK-OV-3. For the same molecule, the GI50 in the assay on MDA-MB-435 was 39 µM (inactive); in the assay with TK-10, 36.9 µM (inactive); with SR, 2.55 µM (inactive); with HOP-92, > 50 µM (inactive); in the assay with CAKI-1 it was 13.2 µM (inactive); with UACC-62, 16.7 µM (inactive). The GI50 was 12.9 µM (inactive) in the assay on K562 and 7.76 µM (inactive) in the assay on HCT-116.

For `O=C(O)c1nnsc1-c1csnn1`, the GI50 in the assay on SNB-19, with OVCAR-4, in the assay with EKVX, with SK-MEL-2, in the assay with NCI/ADR-RES and in the assay with RPMI-8226 was > 100 µM (inactive) throughout. Further, the GI50 in the assay on SF-539, in the assay with A549, in the assay on RXF 393, in the assay with Hs-578T, in the assay with MOLT-4 and with SK-OV-3 was > 100 µM (inactive) in each case. Besides, the GI50 is > 100 µM (inactive) in the assay with MDA-MB-435; 74.8 µM (inactive) with TK-10; 54.6 µM (inactive) with SR; > 100 µM (inactive) in the assay with HOP-92; > 100 µM (inactive) in the assay on CAKI-1; > 100 µM (inactive) with UACC-62. Further, the GI50 in the assay with K562 and in the assay with HCT-116 was > 100 µM (inactive) in each case.

As for `C[C@H]1C(=O)C2=C[C@H]1CCC(=O)[C@]1(C)CCCC(C)(C)[C@H]1C[C@H]2O`, the GI50 was > 100 µM (inactive) in the assay with SNB-19; 48.6 µM (inactive) with OVCAR-4; 13.1 µM (inactive) with EKVX; > 100 µM (inactive) in the assay on SK-MEL-2; 21.5 µM (inactive) in the assay on NCI/ADR-RES; 12.5 µM (inactive) with RPMI-8226. In addition, the GI50 is 15.4 µM (inactive) in the assay with SF-539; 19 µM (inactive) in the assay on A549; 11.5 µM (inactive) in the assay with RXF 393; 19 µM (inactive) in the assay with Hs-578T; 22.1 µM (inactive) in the assay with MOLT-4; 39.6 µM (inactive) in the assay on SK-OV-3. For the same molecule, the GI50 in the assay on MDA-MB-435 is 31.2 µM (inactive); in the assay with TK-10, 15.3 µM (inactive); in the assay with SR it was 17.5 µM (inactive); in the assay on HOP-92 it was 24.3 µM (inactive); with CAKI-1, 22.4 µM (inactive); in the assay on UACC-62, 36.5 µM (inactive). In addition, the GI50 with K562 was 12.4 µM (inactive); in the assay on HCT-116 it was 31.7 µM (inactive).

For the molecule `Cc1c(C)n(-c2ccccc2)c2nc([S+](C)[O-])nc([S+](C)[O-])c12` (stereo not given), the GI50 is 17.1 µM (inactive) with SNB-19; 4.85 µM (inactive) in the assay on OVCAR-4; 6.92 µM (inactive) in the assay on EKVX; 4.68 µM (inactive) in the assay with SK-MEL-2; 22.9 µM (inactive) with NCI/ADR-RES; 1.66 µM (inactive) in the assay with RPMI-8226. Moreover, the GI50 was 3.85 µM (inactive) in the assay with SF-539; 16.6 µM (inactive) in the assay with A549; 2.92 µM (inactive) in the assay on RXF 393; 25.5 µM (inactive) in the assay on Hs-578T; 2.33 µM (inactive) with MOLT-4; 18.5 µM (inactive) in the assay on SK-OV-3. For the same molecule, the GI50 is 3.1 µM (inactive) in the assay with MDA-MB-435; 1.52 µM (inactive) in the assay on TK-10; 0.809 µM (active) with SR; 1.96 µM (inactive) with HOP-92; 1.34 µM (inactive) with CAKI-1; 6.03 µM (inactive) in the assay on UACC-62. Also, the GI50 was 2.09 µM (inactive) in the assay on K562 and 2.14 µM (inactive) with HCT-116.

In the case of `O=c1[nH]c(-c2ccccc2)nc2c1sc1nc3ccccc3n12`, the GI50 in the assay on SNB-19 was 98.4 µM (inactive); with OVCAR-4 it was > 81.3 µM (inactive); in the assay with EKVX it was > 100 µM (inactive); in the assay on SK-MEL-2, > 100 µM (inactive); in the assay on NCI/ADR-RES it was > 100 µM (inactive); in the assay on RPMI-8226, 1.52 µM (inactive). Moreover, the GI50 in the assay with SF-539 is > 100 µM (inactive); in the assay on A549, > 100 µM (inactive); in the assay with RXF 393, > 100 µM (inactive); in the assay with Hs-578T it was 26.7 µM (inactive); in the assay with MOLT-4 it was 16.1 µM (inactive); in the assay with SK-OV-3 it was > 100 µM (inactive). In addition, the GI50 in the assay on MDA-MB-435, with TK-10, in the assay with SR, with HOP-92, in the assay with CAKI-1 and with UACC-62 was > 100 µM (inactive) in each case. Also, the GI50 in the assay on K562 and with HCT-116 was > 100 µM (inactive) each time.

On to `CCOP(=O)(OCC)C(Nc1ccc(Br)cc1)c1cccc([N+](=O)[O-])c1` (stereo not given), for which the GI50 in the assay on SNB-19 was 24.9 µM (inactive); with OVCAR-4, 21.4 µM (inactive); in the assay with EKVX, 2.99 µM (inactive); in the assay on SK-MEL-2, 16.7 µM (inactive); in the assay with NCI/ADR-RES it was 13.5 µM (inactive); in the assay on RPMI-8226 it was 28.2 µM (inactive). Moreover, the GI50 with SF-539 was 19.6 µM (inactive); in the assay on A549, 15.8 µM (inactive); in the assay on RXF 393, 14.4 µM (inactive); with Hs-578T, 21.3 µM (inactive); with MOLT-4 it was 17 µM (inactive); in the assay on SK-OV-3, 14.6 µM (inactive). Besides, the GI50 was 16.1 µM (inactive) in the assay with MDA-MB-435; 30.5 µM (inactive) with TK-10; 18.1 µM (inactive) with SR; 20.7 µM (inactive) in the assay with HOP-92; 22.1 µM (inactive) in the assay on CAKI-1; 14.7 µM (inactive) in the assay with UACC-62. Moreover, the GI50 in the assay with K562 was 12 µM (inactive); in the assay on HCT-116, 12.7 µM (inactive).

Turning to `Cc1cc(C)nc(SC(C)C(=O)N/N=C/c2ccc(OCc3ccccc3)cc2)n1` (stereo not given), the GI50 with SNB-19 was 48.5 µM (inactive); in the assay on OVCAR-4, 15.7 µM (inactive); with EKVX, 25.2 µM (inactive); in the assay with SK-MEL-2, 21.6 µM (inactive); in the assay on NCI/ADR-RES, 21.8 µM (inactive); with RPMI-8226, 13.3 µM (inactive). In addition, the GI50 in the assay with SF-539 was 50.8 µM (inactive); in the assay with A549, 31.3 µM (inactive); in the assay with RXF 393, 19.1 µM (inactive); in the assay with Hs-578T, 52 µM (inactive); in the assay on MOLT-4 it was 17.1 µM (inactive); in the assay with SK-OV-3 it was 41.5 µM (inactive). Moreover, the GI50 in the assay on MDA-MB-435 is 26.7 µM (inactive); with TK-10, 27.2 µM (inactive); in the assay with SR it was 7.89 µM (inactive); in the assay with HOP-92 it was 28.6 µM (inactive); with CAKI-1 it was 20.5 µM (inactive); in the assay on UACC-62 it was 14.5 µM (inactive). Further, the GI50 in the assay on K562 is 6.11 µM (inactive); in the assay with HCT-116, 23.9 µM (inactive).

For the molecule `N#C[BH2-][n+]1ccc(C(=O)NNCc2cccc(C(F)(F)F)c2)cc1`, the GI50 in the assay on SNB-19 is 13.6 µM (inactive); in the assay with OVCAR-4 it was 6.14 µM (inactive); in the assay with EKVX, 27.3 µM (inactive); in the assay with SK-MEL-2, 12.1 µM (inactive); in the assay on NCI/ADR-RES it was 11.6 µM (inactive); in the assay with RPMI-8226, 21.4 µM (inactive). For the same molecule, the GI50 was 4.08 µM (inactive) in the assay with SF-539; 13.5 µM (inactive) in the assay on A549; 8.22 µM (inactive) in the assay with RXF 393; 4.59 µM (inactive) with Hs-578T; 17.6 µM (inactive) in the assay with MOLT-4; 8.93 µM (inactive) with SK-OV-3. The GI50 in the assay with MDA-MB-435 was 17.7 µM (inactive); in the assay on TK-10, 27.3 µM (inactive); with SR it was 26.9 µM (inactive); with HOP-92 it was 14.9 µM (inactive); in the assay on CAKI-1 it was 37.9 µM (inactive); in the assay on UACC-62, 4.59 µM (inactive). Also, the GI50 with K562 is 20.5 µM (inactive); in the assay with HCT-116, 15.2 µM (inactive).

`CCCNC1=C2CC(C)CC(OC)[C@@H](O)[C@H](C)/C=C(\C)C(OC(N)=O)C(OC)/C=C\C=C(/C)C(=O)NC(=CC1=O)C2=O` (stereo not given in full): the GI50 in the assay on SNB-19 is 0.637 µM (active); in the assay on OVCAR-4 it was 26.6 µM (inactive); in the assay with EKVX, 3.36 µM (inactive); with SK-MEL-2, 0.129 µM (active); with NCI/ADR-RES, 3.31 µM (inactive); in the assay on RPMI-8226 it was 0.762 µM (active). Also, the GI50 in the assay with SF-539 is 0.698 µM (active); in the assay with A549, 0.0847 µM (active); in the assay on RXF 393, 1.56 µM (inactive); in the assay with Hs-578T, 3.03 µM (inactive); in the assay with MOLT-4, 0.332 µM (active); in the assay with SK-OV-3, 0.101 µM (active). For the same molecule, the GI50 in the assay on MDA-MB-435 is 0.274 µM (active); with TK-10 it was 0.201 µM (active); in the assay with SR, 0.31 µM (active); with HOP-92, 0.124 µM (active); in the assay with CAKI-1, 11.5 µM (inactive); in the assay on UACC-62, 0.054 µM (active). Further, the GI50 in the assay on K562 was 0.141 µM (active); in the assay on HCT-116, 0.231 µM (active).

For the molecule `COc1ccc(NC(=S)N/N=C2\C(=O)Nc3ccccc32)cc1`, the GI50 is 41.7 µM (inactive) in the assay on SNB-19; 9.77 µM (inactive) in the assay on OVCAR-4; 9.14 µM (inactive) in the assay on EKVX; 40.1 µM (inactive) in the assay with SK-MEL-2; 2.07 µM (inactive) with NCI/ADR-RES; 31.4 µM (inactive) with RPMI-8226. In addition, the GI50 with SF-539 was 6.41 µM (inactive); with A549, 5.52 µM (inactive); with RXF 393 it was 9.27 µM (inactive); with Hs-578T, 29.2 µM (inactive); in the assay with MOLT-4, 4.93 µM (inactive); in the assay with SK-OV-3 it was 20.8 µM (inactive). The GI50 in the assay with MDA-MB-435 is 52.2 µM (inactive); in the assay with TK-10, 22 µM (inactive); in the assay on SR it was 8.51 µM (inactive); in the assay with HOP-92, 44 µM (inactive); in the assay with CAKI-1, 5.11 µM (inactive); in the assay on UACC-62, 6.24 µM (inactive). The GI50 with K562 is 5.69 µM (inactive); with HCT-116, 5.14 µM (inactive).
